From patent publication US7109174B2, “Anticonvulsant derivatives useful for preventing the development of type II diabetes mellitus and syndrome X” (Ortho-McNeil Pharmaceutical, Inc., priority 2000, dated 2006)

Assays:
Assay type in all cases: in vivo
[1] = tested on: db/db mice (Homozygous Diabetic Mice); assay: Plasma glucose, triglycerides and body weight in female diabetic db/db mice, 11 days oral dosage; details: for Plasma Glucose % Change / Plasma Triglycerides % Change / Change in Body Weight / Plasma Triglycerides Plasma Conc. / Plasma Glucose Plasma Conc.: 11 days; for Plasma Glucose % Change / Plasma Triglycerides % Change: versus vehicle; for Change in Body Weight / Plasma Triglycerides Plasma Conc. / Plasma Glucose Plasma Conc.: ± SEM
Description: Six to seven week old female C57 BLK SIJ-m^+/^+ Lepr^db mice (db/db) and heterozygous littermates were purchased from The Jackson Laboratory (Bar Harbor, Me.). Upon arrival the mice were quarantined for 5 days and housed in pairs in shoe-box cages containing ALPHA-dri® bedding (Shepherd Speciality Papers, Inc., Kalamazoo, Mich.). The mice were maintained at an ambient temperature of 21 to 23° C. on a 12 hour-12 hour light-dark schedule and given access to water and food ad libitum. The diet was comprised of NIH (National Institutes of Health) Rat and Mouse/Auto 6F Reduced Fat Diet No. 5K52 (PMI Nutrition International Inc., Brentwood, Mo.).
The vehicle, used as a reference and for test compounds, was 0.5% methylcellulose dissolved in water. The compounds were either fully dissolved or uniformly suspended in the vehicle when administered to the mice.
The db/db mice were randomly separated into five groups of eight, as were the heterozygous littermates. The groups were as follows: one vehicle control group and four groups that each received one of four doses of topiramate (TPM) (10, 30, 100, or 300 mg/kg, respectively). Topiramate or vehicle was administered orally by gavage once a day during the 8th hour of the light portion of the light-dark cycle.
Between 18 and 24 hours after the last dose was administered, the mice were anesthetized with CO2/O2 (70:30) and blood from the retro-orbital sinus puncture was collected into 2 mL heparinized snap-top polypropylene tubes, then placed in ice.
Plasma was separated from blood cells by centrifugation (15 minutes at 1600 g). For samples not assayed immediately, the plasma was transferred into 96-well plates and frozen at −70° C.
Glucose and triglycerides were assayed using standard procedures for blood clinical laboratories. Specifically, the samples were analyzed using an automated Hitachi 717 autoanalyzer (Boehringer Mannheim/Hitachi 717 Autoanalyzer, Boehringer Mannheim Laboratory Systems Division, Indianapolis, Ind.). A statistical analysis of data for the drug-treated groups compared to data for the vehicle group was performed using the one-way analysis of variance (ANOVA) with Dunnett's Multiple Comparisons test.
Following the procedure described above, the effect of topiramate on plasma glucose and triglyceride levels was determined for female diabetic db/db mice and littermates, following 11 days oral dosage, with results as listed in Table 3 and 4. Body weights are in Table 5. The abbreviation N represents the number of animals per study group.

[2] = tested on: Female db/db mice; assay: Oral glucose tolerance test (fasted) in female db/db mice after 11 days oral dosing; details: for Oral Glucose Tolerance Test (fasted) Plasma Glucose: ± sem
Description: Female db/db mice (C57BLK S/J-m^+/^+ Lepr^db Jackson Labs, Bar Harbor, Me.), 7–8 weeks of age, were housed four per cage in solid-bottomed shoe box cages. Room temperature was maintained at 68–72° F. and humidity at 50–65%. Room lighting was on a 12-hour light/12-hour dark cycle. The mice were maintained on NIH Rat and Mouse/Auto 6F reduced fat diet #5K52 (PMI Nutrition Int'l Inc.). Food and water were supplied ad libitum.
Test compound and vehicle were dosed orally and prepared as suspensions in 0.5% hydroxypropylmethylcellulose (Dow Chemical, Midland, Mich.). The dosing volume was 10 mL/kg of body weight.
Different groups of female db/db mice (7–8/group) were orally gavaged daily for 11 days with either 0.5% methylcellulose in dH2O (vehicle), topiramate at 30 or 100 mg/kg/day or 2,3:4,5-bis-O-(1-methylethylidene)-β-L-fructopyranose sulfamate (hereinafter referred to as Compound V) at 30 or 100 mg/kg/day. On day 10, the animals were fasted for 20 hours before being tested for oral glucose tolerance (OGT). On day 11, four hours after the final dose for each group, an oral glucose tolerance test (OGTT) was performed by oral glucose administration of 2 g/kg. Animals were bled through tail clip at 0 (before glucose), 30, 60 and 120 min after glucose challenge. The blood samples were collected into heparinized CB microvettes and then put on ice. The plasma samples will be assayed for plasma glucose determination by using SIGMA DIAGNOSTICS Trinder reagent (Sigma, St. Louis, Mo.). Statistical analysis was performed using the program Instat (Graphpad, Monrovia, Calif.) and performing one-way ANOVA with a Dunnett's multiple comparison test.
Following the above described procedure, the effect of topiramate and compound V on oral glucose tolerance in female db/db mice, 7 mice/group, was determined, with results as listed in Table 9. The abbreviation N represents the number of animals per study group.

[3] = tested on: Female ZDF rats; assay: Blood glucose and oral glucose tolerance in female ZDF rats dosed orally for 16 days; details: for Plasma Glucose Levels: 16 days, ± SEM
Description: Female ZDF rats were also randomly divided into control and topiramate (30 or 100 mg/kg/day) treated groups, dosed orally for 16 days, and tested for blood glucose levels and oral glucose tolerance following glucose challenge of 2 g/kg. The effect of topiramate was as listed in Table 10 (N=8 rats per treatment group).

[4] = 100 mg/kg oral once a day, P < 0.01
[5] = 300 mg/kg oral once a day, P < 0.01

## CC1(C)O[C@@H]2[C@@H](CO[C@@]3(COS(N)(=O)=O)OC(C)(C)O[C@@H]23)O1 [Topiramate, 2,3:4,5-bis-O-(1-methylethylidene)-β-D-fructopyranose sulfamate]
[1]; 10 mg/kg oral once a day
  Plasma Glucose % Change: −27.4%
  Plasma Triglycerides % Change: −18.9%
  Change in Body Weight: 1.7 ± 0.9 g
  Plasma Triglycerides Plasma Conc.: 277 ± 30 mg/dL
[1]; 10 mg/kg oral once a day, P < 0.05
  Plasma Glucose Plasma Conc.: 382 ± 46 mg/dL
[1]; 10 mg/kg/day, P<0.05
  decrease in blood glucose vs. control: 27%
[1]; 30 mg/kg oral once a day
  Plasma Glucose % Change: −34.6%
  Plasma Triglycerides % Change: −11.2%
  Change in Body Weight: 2.6 ± 1.0 g
  Plasma Triglycerides Plasma Conc.: 303 ± 29 mg/dL
[1]; 30 mg/kg oral once a day, P < 0.01
  Plasma Glucose Plasma Conc.: 344 ± 31 mg/dL
[1]; 30 mg/kg/day, P<0.01
  decrease in blood glucose vs. control: 35%
[1]; 100 mg/kg oral once a day
  Plasma Glucose % Change: −36.6%
  Plasma Triglycerides % Change: −33.7%
  Change in Body Weight: 1.5 ± 0.7 g
[1]; [4]
  Plasma Glucose Plasma Conc.: 333 ± 42 mg/dL
  Plasma Triglycerides Plasma Conc.: 227 ± 15 mg/dL
[1]; 100 mg/kg/day, P<0.01
  decrease in blood glucose vs. control: 37%
[1]; 300 mg/kg oral once a day
  Plasma Glucose % Change: −60.5%
  Plasma Triglycerides % Change: −41.7%
  Change in Body Weight: 0.7 ± 2.4 g
[1]; [5]
  Plasma Glucose Plasma Conc.: 207 ± 41 mg/dL
  Plasma Triglycerides Plasma Conc.: 199 ± 16 mg/dL
[1]; 300 mg/kg/day, P<0.01
  decrease in blood glucose vs. control: 61%
[1]; 100 and 300 mg/kd/day, P<0.01
  decrease in plasma triglyceride levels versus diabetic controls: up to 42%
[2]; 30 mg/kg/day, 0 min (before glucose 2 g/kg)
  Oral Glucose Tolerance Test (fasted) Plasma Glucose: 188 ± 16.7 mg/dL
[2]; 30 mg/kg/day, 30 min after glucose 2 g/kg
  Oral Glucose Tolerance Test (fasted) Plasma Glucose: 401 ± 68.4 mg/dL
[2]; 30 mg/kg/day, 60 min after glucose 2 g/kg
  Oral Glucose Tolerance Test (fasted) Plasma Glucose: 295 ± 31.5 mg/dL
[2]; 30 mg/kg/day, 120 min after glucose 2 g/kg
  Oral Glucose Tolerance Test (fasted) Plasma Glucose: 124 ± 20 mg/dL
[2]; 100 mg/kg/day, 0 min (before glucose 2 g/kg)
  Oral Glucose Tolerance Test (fasted) Plasma Glucose: 160 ± 12.8 mg/dL
[2]; 100 mg/kg/day, 30 min after glucose 2 g/kg
  Oral Glucose Tolerance Test (fasted) Plasma Glucose: 454 ± 38.5 mg/dL
[2]; 100 mg/kg/day, 60 min after glucose 2 g/kg
  Oral Glucose Tolerance Test (fasted) Plasma Glucose: 271 ± 52.6 mg/dL
[2]; 100 mg/kg/day, 120 min after glucose 2 g/kg
  Oral Glucose Tolerance Test (fasted) Plasma Glucose: 184 ± 32.3 mg/dL
[2]; 30 or 100 mg/kg/day
  elevated blood glucose levels induced by oral glucose challenge: suppressed
  fasting glucose levels: decreased
[3]; 30 mg/kg/day oral, 60 Min after Challenge (glucose 2 g/kg), P < 0.05
  Plasma Glucose Levels: 342 ± 32 md/dL
[3]; 30 mg/kg/day oral, 90 Min after Challenge, P < 0.01
  Plasma Glucose Levels: 269 ± 32 md/dL
[3]; 30 mg/kg/day oral, 120 Min after Challenge, P < 0.01
  Plasma Glucose Levels: 206 ± 26 md/dL
[3]; 30 mg/kg/day oral, Time = 0
  Plasma Glucose Levels: 121 ± 13 md/dL
[3]; 100 mg/kg/day oral, 60 Min after Challenge (glucose 2 g/kg), P < 0.01
  Plasma Glucose Levels: 333 ± 32 md/dL
[3]; 100 mg/kg/day oral, 90 Min after Challenge, P < 0.01
  Plasma Glucose Levels: 242 ± 28 md/dL
[3]; 100 mg/kg/day oral, 120 Min after Challenge, P < 0.01
  Plasma Glucose Levels: 173 ± 23 md/dL
[3]; 100 mg/kg/day oral, Time = 0
  Plasma Glucose Levels: 129 ± 15 md/dL
[3]; at 60, 90 and 120 minutes after glucose challenge
  oral glucose tolerance: improves
